# Source: article PMC7037546, “High Cell Selectivity and Bactericidal Mechanism of Symmetric Peptides Centered on D-Pro–Gly Pairs” (International Journal of Molecular Sciences, 2020)
# Non-standard residues stand in square brackets, D forms with d. Residues, ends and D or L forms follow the SMILES beside them.
# Columns and labels:
# [1] = test system: HEK293T cells; assay: Cytotoxicity, CCK-8 assay; type: cell-based, human; conditions: 64 μM peptide, 16 h, CCK-8, OD 450 nm
# Description: (§1) The cytotoxicity was detected according to a CCK-8 assay as described previously. Briefly, RAW 264.7 and HEK293T cells were placed into 96-well plates at a density of 1.0–2.0 × 10^5, and then cultured for 16 h under conditions of 5% CO2. Then, two-fold diluted peptides in DMEM were added to the plates. After 16 h of culturing, CCK-8 (10%, v/v) was put into each well containing cell culture, and mixtures were cultured for 2 h. The cytotoxicity assay was examined by measuring the OD of the mixtures at 450 nm (Microplate reader, TECAN GENios F129004, Tecan, Salzburg, Austria). The assays were performed three times.
# [2] = test system: Salmonella Pullorum NCTC5776; conditions: NCTC5776, 16 h
# Description: (§2) The antimicrobial activity of the designed peptides was examined using the micro-dilution method described previously. The bacteria were cultured for 16 h in MHB at 37 °C, and the microbial suspension was diluted to a final concentration of 10^5 colony-forming units (CFU)/mL. Then, 50 µL of MHB containing different concentrations peptides (0.25–256 µM) was mixed with 50 µL of bacterial solution, and the mixture was added to a 96-well plate. […] The assays were performed three times.
# [3] = test system: Enterococcus faecalis ATCC29212; conditions: ATCC29212, 16 h
# Description: as §2
# [4] = test system: methicillin-resistant S. aureus ATCC43300; conditions: ATCC43300, 16 h
# Description: as §2
# [5] = test system: Gram-negative bacteria; conditions: 16 h
# Description: as §2
# [6] = test system: Staphylococcus aureus ATCC25923; conditions: ATCC25923, 16 h
# Description: as §2
# [7] = test system: Pseudomonas aeruginosa ATCC27853; conditions: ATCC27853, 16 h
# Description: as §2
# [8] = test system: S. aureus ATCC29213; conditions: ATCC29213, 16 h
# Description: as §2
# [9] = test system: E. coli K88; conditions: micro-dilution in MHB, 10^5 CFU/mL, 16 h, OD 492 nm, performed three times
# Description: as §2
# [10] = test system: Klebsiella pneumonia CMCC46117; conditions: CMCC46117, 16 h
# Description: as §2
# [11] = test system: RAW 264.7 cells; assay: Cytotoxicity, CCK-8 assay; type: cell-based, murine; conditions: 64 μM peptide, 16 h, CCK-8, OD 450 nm
# Description: as §1
# [12] = test system: E. coli ATCC25922; conditions: ATCC25922, 16 h
# Description: The combined antibacterial effect of peptides with other antibiotics was evaluated by checkerboard assay as described previously. […] Subsequently, each peptide at the same concentration was added to the longitudinal column of wells, and each antibiotic at the same concentration was added to the horizontal row of wells. A suspension at 10^5 CFU/mL was put into each well for 16 h at 37 °C. Each assay was performed three times.
# [13] = test system: Gram-positive bacteria; assay: Geometric mean of MICs and therapeutic index, Gram (+); type: cell-based; conditions: geometric mean over the Gram-positive strains of Table 2; 256 μM used when no activity at 128 μM
# Description: as §2
# [14] = test system: E. coli ATCC25922; type: cell-based, Escherichia coli; conditions: for MIC after pH treatment, pH 4 / MIC after pH treatment, pH 6 / MIC after pH treatment, pH 8 / MIC after pH treatment, pH 10: ATCC25922, 1 h; for MIC after temperature treatment, 0 °C / MIC after temperature treatment, 37 °C / MIC after temperature treatment, 100 °C / MIC in the presence of FeCl3 / MIC in the presence of KCl / MIC in the presence of MgCl2 / MIC in the presence of NH4Cl / MIC in the presence of NaCl / MIC in the presence of ZnCl2 / MIC, Control / MIC, Control (pH 7): ATCC25922, 16 h
# Description: as §2
# The salt, temperature, and pH sensitivities of designed peptides were determined by MIC assay as described previously. For the salt sensitivity assay, peptides were diluted in deionized water containing different salts, and mixed with E. coli ATCC25922 (10^5 CFU/mL). The final physiological concentrations of different salts were as follows: 150 mM NaCl, 4.5 mM KCl, 6 μM NH4Cl, 1 mM MgCl2, 8 μM ZnCl2, and 4 μM FeCl3. For temperature sensitivity, peptides were cooled on ice for 10 min, and incubated at 37 °C and 100 °C for 30 min. For pH sensitivity, peptides were treated with different pH for 1 h. Briefly, peptides were diluted in deionized water, and the pH of the solution was adjusted to 4.0, 6.0, 8.0, and 10.0 with HCl or NaOH. The subsequent steps were the same as for the MIC measurements. These tests were performed three times.
# [15] = test system: Escherichia coli ATCC25922; assay: microbe, parasite or virus in culture; conditions: ATCC25922, 16 h
# Description: as §2
Structure (SMILES),cell survival rate [1] [%],MIC [2] [µM],MIC [3] [µM],MIC [4] [µM],"GM (geometric mean of MICs), Gram (−) [5] [µM]",MIC [6] [µM],MIC [7] [µM],MIC [8] [µM],MIC [9] [µM],MIC [10] [µM],cell survival rate [11] [%],"GM (geometric mean of MICs), Gram (+) [13] [µM]","MIC after pH treatment, pH 4 [14] [µM]","MIC after pH treatment, pH 6 [14] [µM]","MIC after pH treatment, pH 8 [14] [µM]","MIC after pH treatment, pH 10 [14] [µM]","MIC after temperature treatment, 0 °C [14] [µM]","MIC after temperature treatment, 37 °C [14] [µM]","MIC after temperature treatment, 100 °C [14] [µM]",MIC in the presence of FeCl3 [14] [µM],also measured
CC(C)C[C@H](NC(=O)[C@H](CC(C)C)NC(=O)[C@H](CCCNC(=N)N)NC(=O)[C@H](CC(C)C)NC(=O)[C@H](CC(C)C)NC(=O)[C@H](CCCNC(=N)N)NC(=O)[C@H](CCCNC(=N)N)NC(=O)CNC(=O)[C@H]1CCCN1C(=O)[C@H](CCCNC(=N)N)NC(=O)[C@H](CCCNC(=N)N)NC(=O)[C@H](CC(C)C)NC(=O)[C@H](CC(C)C)NC(=O)[C@H](CCCNC(=N)N)NC(=O)[C@H](CC(C)C)NC(=O)[C@@H](N)CC(C)C)C(N)=O [LRpG] (H-LLRLLRR[dP]GRRLLRLL-NH2),93,4,32,16,3.5,16,8,16,2,4,92,19.0,2,2,2,4,2,2,2,2,"FICI in combination with Cefotaxime [12]: 1; FICI in combination with Chloramphenicol [12]: 0.75; FICI in combination with Ciprofloxacin [12]: 0.625; FICI in combination with Streptomycin [12]: 0.5; FICI in combination with other conventional antibiotics (additive effect) [12]: 0.625-1; MIC in the presence of KCl [14]: 2 µM; MIC in the presence of MgCl2 [14]: 2 µM; MIC in the presence of NH4Cl [14]: 2 µM; MIC in the presence of NaCl [14]: 8 µM; MIC in the presence of ZnCl2 [14]: 2 µM; MIC, Control [14]: 2 µM; MIC, Control (pH 7) [14]: 2 µM; MIC [15]: 2 µM"
CC[C@H](C)[C@H](N)C(=O)N[C@H](C(=O)N[C@@H](CCCNC(=N)N)C(=O)N[C@H](C(=O)N[C@H](C(=O)N[C@@H](CCCNC(=N)N)C(=O)N[C@@H](CCCNC(=N)N)C(=O)N1CCC[C@@H]1C(=O)NCC(=O)N[C@@H](CCCNC(=N)N)C(=O)N[C@@H](CCCNC(=N)N)C(=O)N[C@H](C(=O)N[C@H](C(=O)N[C@@H](CCCNC(=N)N)C(=O)N[C@H](C(=O)N[C@H](C(N)=O)[C@@H](C)CC)[C@@H](C)CC)[C@@H](C)CC)[C@@H](C)CC)[C@@H](C)CC)[C@@H](C)CC)[C@@H](C)CC [IRpG] (H-IIRIIRR[dP]GRRIIRII-NH2),98,16,>128,>128,16,>128,32,>128,16,32,98,256,16,4,8,16,4,4,4,4,"MIC in the presence of KCl [14]: 4 µM; MIC in the presence of MgCl2 [14]: 8 µM; MIC in the presence of NH4Cl [14]: 4 µM; MIC in the presence of NaCl [14]: 32 µM; MIC in the presence of ZnCl2 [14]: 4 µM; MIC, Control [14]: 4 µM; MIC, Control (pH 7) [14]: 4 µM; MIC [15]: 4 µM"
